Results taken from patent US10196364B2, “Pyrimidine carboxamides as sodium channel blockers” (Purdue Pharma L.P., priority 2013, dated 2019).
Where two headings read alike, the source gives them in different places.

What was measured:
Assay type in all cases: cell-based
human Nav1.7 [1] = molecular target: T1, human Nav1.7 (Homo sapiens, UniProt Q15858); test: FLIPR membrane potential dye assay (alternative fluorescence assay) in Nav1.7 expressing cells; conditions: Table 7
hNav1.7 = hNav1.7 (Homo sapiens, UniProt Q15858); test: Electrophysiology (EP) whole-cell patch clamp assay in hNav1.7 expressing HEK-293 cells; conditions: for Ki: affinity for inactivated channels, read-out: Nav1.7 Activity (μM) EP assay Ki; for Kd: resting block dissociation constant, read-out: Nav1.7 Activity (μM) EP assay Kr
hNav1.7, sequence (Q15858 1-1977 isoform Q15858-3): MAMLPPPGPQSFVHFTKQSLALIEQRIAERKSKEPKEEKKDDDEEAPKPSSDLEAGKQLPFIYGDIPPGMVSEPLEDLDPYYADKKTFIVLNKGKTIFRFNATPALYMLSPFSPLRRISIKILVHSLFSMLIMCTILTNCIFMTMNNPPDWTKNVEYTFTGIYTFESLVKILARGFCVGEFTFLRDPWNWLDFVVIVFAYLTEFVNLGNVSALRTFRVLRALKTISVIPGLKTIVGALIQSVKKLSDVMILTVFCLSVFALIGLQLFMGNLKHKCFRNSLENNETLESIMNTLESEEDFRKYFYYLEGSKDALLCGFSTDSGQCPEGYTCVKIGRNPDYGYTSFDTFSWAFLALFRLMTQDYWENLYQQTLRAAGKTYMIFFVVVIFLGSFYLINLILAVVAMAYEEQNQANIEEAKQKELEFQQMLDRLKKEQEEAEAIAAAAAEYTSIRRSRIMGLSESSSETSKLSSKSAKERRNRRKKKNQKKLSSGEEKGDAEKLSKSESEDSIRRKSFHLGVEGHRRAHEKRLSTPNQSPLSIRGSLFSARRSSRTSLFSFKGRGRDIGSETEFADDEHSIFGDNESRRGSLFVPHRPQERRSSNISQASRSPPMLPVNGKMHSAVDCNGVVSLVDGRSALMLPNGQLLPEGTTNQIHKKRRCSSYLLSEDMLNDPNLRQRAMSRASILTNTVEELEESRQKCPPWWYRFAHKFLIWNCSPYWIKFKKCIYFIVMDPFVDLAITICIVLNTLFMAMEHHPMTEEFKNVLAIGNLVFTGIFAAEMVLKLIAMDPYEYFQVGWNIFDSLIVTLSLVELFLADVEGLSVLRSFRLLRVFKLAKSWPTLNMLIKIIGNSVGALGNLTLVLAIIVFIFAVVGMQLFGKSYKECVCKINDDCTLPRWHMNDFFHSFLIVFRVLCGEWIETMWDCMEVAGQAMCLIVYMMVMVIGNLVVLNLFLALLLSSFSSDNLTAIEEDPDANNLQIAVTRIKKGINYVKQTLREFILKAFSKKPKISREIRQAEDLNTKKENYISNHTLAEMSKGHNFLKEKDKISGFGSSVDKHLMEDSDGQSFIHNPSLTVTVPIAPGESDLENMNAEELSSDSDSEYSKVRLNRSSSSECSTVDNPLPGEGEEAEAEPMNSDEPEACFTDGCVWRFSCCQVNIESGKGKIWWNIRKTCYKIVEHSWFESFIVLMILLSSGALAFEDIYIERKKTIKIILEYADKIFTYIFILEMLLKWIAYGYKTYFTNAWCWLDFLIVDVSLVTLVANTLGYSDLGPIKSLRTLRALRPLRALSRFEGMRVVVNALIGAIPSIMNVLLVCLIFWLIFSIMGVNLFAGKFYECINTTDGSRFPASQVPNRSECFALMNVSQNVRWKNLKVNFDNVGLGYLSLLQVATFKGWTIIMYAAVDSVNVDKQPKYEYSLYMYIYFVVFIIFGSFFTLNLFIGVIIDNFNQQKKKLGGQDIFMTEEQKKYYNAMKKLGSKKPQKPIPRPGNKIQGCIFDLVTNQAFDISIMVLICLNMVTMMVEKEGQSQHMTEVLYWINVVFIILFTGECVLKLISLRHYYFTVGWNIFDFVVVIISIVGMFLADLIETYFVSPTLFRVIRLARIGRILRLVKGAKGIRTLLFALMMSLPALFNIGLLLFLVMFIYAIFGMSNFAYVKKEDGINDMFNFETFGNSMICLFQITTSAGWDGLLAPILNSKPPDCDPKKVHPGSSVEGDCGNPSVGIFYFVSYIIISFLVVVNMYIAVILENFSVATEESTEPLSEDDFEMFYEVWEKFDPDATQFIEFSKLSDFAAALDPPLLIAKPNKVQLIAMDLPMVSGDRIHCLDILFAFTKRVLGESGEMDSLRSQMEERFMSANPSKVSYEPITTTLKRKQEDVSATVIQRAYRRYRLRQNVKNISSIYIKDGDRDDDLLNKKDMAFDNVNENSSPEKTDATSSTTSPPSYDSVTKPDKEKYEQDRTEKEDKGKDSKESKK
Procedure: The hNav1.7 expressing HEK-293 cells were plated on 35 mm culture dishes pre-coated with poly-D-lysine in standard DMEM culture media (Mediatech, Inc., Herndon, Va.) and incubated in a 5% CO2 incubator at 37° C. Cultured cells were used approximately 12-48 h after plating.
On the day of experimentation, the 35 mm dish was placed on the stage of an inverted microscope equipped with a perfusion system that continuously perfuses the culture dish with fresh recording media. A gravity driven superfusion system was used to apply test solutions directly to the cell under evaluation. This system consists of an array of glass pipette glass connected to a motorized horizontal translator. The outlet of the shooter was positioned approximately 100 μm from the cell of interest.
Whole cell currents were recorded using the whole-cell patch clamp configuration using an Axopatch 200B amplifier (Axon Instruments, Foster City Calif.), 1322A A/D converter (Axon Instruments) and pClamp software (v. 8; Axon Instruments) and stored on a personal computer. Gigaseals were formed and the whole-cell configuration was established in voltage clamp mode, and membrane currents generated by hNav1.7 were recorded in gap-free mode. Borosilicate glass pipettes have resistance values between 1.5 and 2.0 MΩ when filled with pipette solution and series resistance (<5 MΩ) was compensated 75-80%. Signals were sampled at 50 kHz and low pass filtered at 3 kHz.
After establishing the whole-cell configuration in voltage clamp mode, two voltage protocols were run to establish: 1) the holding potential; and 2) the test potential for each cell.
To determine a membrane potential at which the majority of channels are in the resting state, a standard steady-state inactivation (SSIN) protocol was run using 100 ms prepulses×10 mV depolarizing steps. The holding potential for testing resting block (Vh1) was 20 mV more hyperpolarized than the first potential where inactivation is observed with the inactivation protocol.
From this holding potential a standard I-V protocol was run to determine the potential at which the maximal current (Imax) was elicited. This potential was the test potential (Vt).
The compound testing protocol was a series of 10 ms depolarizations from the Vh1 (determined from the SSIN) to the Vt (determined from the I-V protocol) repeated every 10-15 seconds. […] Washout of the compound was attempted by superfusing with control solution once steady-state block was observed. The fractional response was calculated as follows: FR=I(after drug)/I(control), where I is the peak current amplitude and was used for estimating resting block dissociation constant, Kr: Kr=[drug]*{FR/(1−FR)}, where [drug] is the concentration of a drug.
To assess the block of inactivated channels the holding potential was depolarized such that 20-50% of the current amplitude was reduced when pulsed to the same Vt as above. The magnitude of this depolarization depends upon the initial current amplitude and the rate of current loss due to slow inactivation. This was the second holding potential (Vh2). The current reduction was recorded to determine the fraction of available channels at this potential (h). h=I@Vh2/Imax.
At this membrane voltage a proportion of channels are in the inactivated state, and thus inhibition by a blocker includes interaction with both resting and inactivated channels.
To determine the potency of the test compound on inactivated channels, a series of currents were elicited by 10 ms voltage steps from Vh2 to Vt every 10-15 seconds. After establishing a stable baseline, the low concentration of the compound was applied. Multiple cumulative concentrations may have to be applied to identify a concentration that will block between 40-60% of the current. Washout was attempted to re-establish baseline. Fractional responses were measured with respect to a projected baseline to determine Kapp. Kapp=[drug]*{FR/(1−FR)}, where [drug] is the concentration of a drug. […]

human Nav1.7 [2] = molecular target: T1, human Nav1.7; test: FLIPR sodium dye assay (CoroNa Green AM Na+ dye, primary fluorescence assay) in recombinant Nav1.7/HEK293 cells; conditions: Table 6; CoroNa Green AM Na+ dye primary fluorescence assay; read-out: Nav1.7 Activity (μM) FLIPR assay IC50

T1 sequence (Q15858 1-1977 isoform Q15858-3): as above

| SMILES | IC50 (human Nav1.7 [1]) | Ki (hNav1.7; Table 6) | IC50 (human Nav1.7 [2]) | further results |
| --- | --- | --- | --- | --- |
| Cn1cc(COc2ccc(-c3nc(N[C@H]4CCNC4=O)cc(C(N)=O)n3)cc2)cn1 [Cpd No. 233, (S)-2-(4-((1-methyl-1H-pyrazol-4-yl)methoxy)phenyl)-6-((2-oxopyrrolidin-3-yl)amino)-pyrimidine-4-carboxamide] | 10 to 20 µM | – | – | – |
| NC(=O)c1cc(N[C@H]2CCNC2=O)nc(-c2ccc(Oc3ccc(Cl)cn3)cc2)n1 [compound 133, (S)-2-(4-((5-chloropyridin-2-yl)oxy)phenyl)-6-((2-oxopyrrolidin-3-yl)amino)pyrimidine-4-carboxamide] | – | 0.57 µM | 0.39 µM | Kd (hNav1.7; Table 6): 7.17 µM |
| C[C@H](Nc1cc(C(N)=O)nc(-c2ccc(N3Cc4cc(Cl)ccc4OCC3=O)cc2)n1)C(N)=O [Cpd No. 222, (S)-6-((1-amino-1-oxopropan-2-yl)amino)-2-(4-(7-chloro-3-oxo-2,3-dihydrobenzo-[f][1,4]oxazepin-4(5H)-yl)phenyl)pyrimidine-4-carboxamide] | > 20 µM | – | – | – |
| C[C@H](Oc1cc(C(N)=O)nc(-c2ccc(Oc3ccc(C(F)(F)F)cn3)cc2)n1)C(N)=O [compound 146, (S)-6-((1-amino-1-oxopropan-2-yl)oxy)-2-(4-((5-(trifluoromethyl)pyridin-2-yl)oxy)phenyl)pyrimidine-4-carboxamide] | – | 1.25 µM | 0.52 µM | Kd (hNav1.7; Table 6): 18.3 µM |
| CC(=O)c1ccc(Oc2ccc(-c3nc(N[C@H]4CCNC4=O)cc(C(N)=O)n3)cc2)nc1 [Cpd No. 217, (S)-2-(4-((5-acetylpyridin-2-yl)oxy)phenyl)-6-((2-oxo-pyrrolidin-3-yl)amino)-pyrimidine-4-carboxamide] | > 20 µM | – | – | – |
| NC(=O)c1cc(N[C@H]2CCNC2=O)nc(-c2ccc(Oc3ccc(C4CC4)cn3)cc2)n1 [compound 142, (S)-2-(4-((5-cyclopropylpyridin-2-yl)oxy)phenyl)-6-((2-oxopyrrolidin-3-yl)amino)pyrimidine-4-carboxamide] | – | 0.3 µM | 0.064 µM | Kd (hNav1.7; Table 6): 26.8 µM |
| NC(=O)c1cc(N[C@H]2CCNC2=O)nc(-c2ccc(Oc3ccc(C(F)F)cn3)cc2)n1 [Cpd No. 220, (S)-2-(4-((5-(difluoromethyl)-pyridin-2-yl)oxy)phenyl)-6-((2-oxopyrrolidin-3-yl)amino)-pyrimidine-4-carboxamide] | 2.76 µM | – | – | – |
| NC(=O)c1cc(O[C@H]2CCNC2=O)nc(N2[C@@H]3CC[C@H]2C[C@@H](Oc2ccc(C(F)(F)F)cn2)C3)n1 [Cpd No. 224, 6-(((S)-2-oxopyrrolidin-3-yl)oxy)-2-((1R,3S,5S)-3-((5-(trifluoromethyl)pyridin-2-yl)oxy)-8-azabicyclo[3.2.1]octan-8-yl)pyrimidine-4-carboxamide] | 1.01 µM | – | – | Ki (hNav1.7; Table 7): 0.81 µM |
| NC(=O)c1cc(N[C@H]2CCNC2=O)nc(-c2ccc(Oc3cccc(F)n3)cc2)n1 [compound 134, (S)-2-(4-((6-fluoropyridin-2-yl)oxy)phenyl)-6-((2-oxopyrrolidin-3-yl)amino) pyrimidine-4-carboxamide] | – | 0.82 µM | 2.42 µM | Kd (hNav1.7; Table 6): 22.1 µM |
| CCN(CC)Cc1cc(C(F)(F)F)ccc1Oc1ccc(-c2nc(O[C@H]3CCNC3=O)cc(C(N)=O)n2)cc1 [Cpd No. 216, (S)-2-(4-(2-((diethylamino)-methyl)-4-(trifluoromethyl)-phenoxy)phenyl)-6-((2-oxopyrrolidin-3-yl)oxy)-pyrimidine-4-carboxamide] | 1.21 µM | – | – | – |
| NC(=O)c1cc(N[C@H]2CCNC2=O)nc(N2C3CCC2CC(Oc2ccc(C(F)(F)F)cn2)C3)n1 (stereo partly drawn) [compound 140, 6-(((S)-2-oxopyrrolidin-3-yl)amino)-2-(3-((5-(trifluoromethyl)pyridin-2-yl)oxy)-8-azabicyclo[3.2.1]octan-8-yl)pyrimidine-4-carboxamide] | – | 2.55 µM | 0.38 µM | Kd (hNav1.7; Table 6): 46.2 µM |
| NC(=O)c1cc(N[C@H]2CCNC2=O)nc(-c2ccc(Cc3ccc(C(F)(F)F)cn3)cc2)n1 [Cpd No. 190, (S)-6-((2-oxopyrrolidin-3-yl)amino)-2-(4-((5-(trifluoro-methyl)pyridin-2-yl)methyl)-phenyl)pyrimidine-4-carboxamide] | – | 0.29 µM | 1.61 µM | – |
| C[C@H](Nc1cc(C(N)=O)nc(N2CC[C@H](Oc3ccc(C(F)(F)F)cc3)C2)n1)C(N)=O [Cpd No. 225, 6-(((S)-1-amino-1-oxopropan-2-yl)amino)-2-((S)-3-(4-(trifluoro-methyl)phenoxy)pyrrolidin-1-yl)pyrimidine-4-carboxamide] | 10 to 20 µM | – | – | – |
| NC(=O)c1cc(N[C@H]2CCNC2=O)nc(-c2ccc(N3Cc4cc(Cl)ccc4OCC3=O)cc2)n1 [Cpd No. 221, (S)-2-(4-(7-chloro-3-oxo-2,3-dihydrobenzo[f][1,4]oxazepin-4(5H)-yl)phenyl)-6-((2-oxopyrrolidin-3-yl)amino)-pyrimidine-4-carboxamide] | > 20 µM | – | – | – |
| NC(=O)c1cc(N[C@H]2CCNC2=O)nc(-c2ccc(Oc3cc(Cl)ccc3F)cc2)n1 [compound 117, (S)-2-(4-(5-chloro-2-fluorophenoxy)phenyl)-6-((2-oxopyrrolidin-3-yl)amino)pyrimidine-4-carboxamide] | – | 0.027 µM | 0.2 µM | Kd (hNav1.7; Table 6): 0.83 µM |
| Cn1nccc1-c1cc(Oc2ccc(C(F)(F)F)cc2)ccc1-c1nc(N[C@H]2CCNC2=O)cc(C(N)=O)n1 [Cpd No. 219, (S)-2-(2-(1-methyl-1H-pyrazol-5-yl)-4-(4-(trifluoromethyl)-phenoxy)phenyl)-6-((2-oxopyrrolidin-3-yl)amino)-pyrimidine-4-carboxamide] | 0.94 µM | – | – | – |
| Cn1cc(-c2ccc(-c3nc(N[C@H]4CCNC4=O)cc(C(N)=O)n3)cc2)c2ccc(C(F)(F)F)cc21 [Cpd No. 218, (S)-2-(4-(1-methyl-6-(trifluoromethyl)-1H-indol-3-yl)phenyl)-6-((2-oxopyrrolidin-3-yl)amino)pyrimidine-4-carboxamide] | 4.03 µM | – | – | – |
| NC(=O)c1cc(N[C@H]2CCNC2=O)nc(N2[C@@H]3CC[C@H]2C[C@H](Oc2ccc(C(F)(F)F)cn2)C3)n1 [Cpd No. 183, 6-(((S)-2-oxopyrrolidin-3-yl)amino)-2-((1R,3R,5S)-3-((5-(trifluoromethyl)pyridin-2-yl)oxy)-8-azabicyclo[3.2.1]octan-8-yl)pyrimidine-4-carboxamide] | – | 0.49 µM | 1.27 µM | – |
| C[C@H](Nc1cc(C(N)=O)nc(-c2ccc(N3CCOc4cc(F)ccc43)cc2)n1)C(N)=O [Cpd No. 223, (S)-6-((1-amino-1-oxopropan-2-yl)amino)-2-(4-(7-fluoro-2,3-dihydro-4H-benzo[b][1,4]oxazin-4-yl)phenyl)pyrimidine-4-carboxamide] | 3.78 µM | – | – | – |
| NC(=O)c1cc(O[C@H]2CCNC2=O)nc(-c2ccc(Oc3ccc(C(F)(F)F)cc3)cc2CN2CCCCC2)n1 [Cpd No. 231, (S)-6-((2-oxopyrrolidin-3-yl)oxy)-2-(2-(piperidin-1-ylmethyl)-4-(4-(trifluoromethyl)-phenoxy)phenyl)pyrimidine-4-carboxamide] | > 20 µM | – | – | – |
| C[C@H](Nc1cc(C(N)=O)nc(N2CC[C@@H](Oc3ccc(C(F)(F)F)cc3)C2)n1)C(N)=O [Cpd No. 226, 6-(((S)-1-amino-1-oxopropan-2-yl)amino)-2-((R)-3-(4-(trifluoromethyl)-phenoxy)pyrrolidin-1-yl)pyrimidine-4-carboxamide] | 3.23 µM | – | – | – |
| NC(=O)c1cc(O[C@H]2CCNC2=O)nc(-c2ccc(Oc3ccc(C(F)(F)F)cc3)cc2CN2CCOCC2)n1 [Cpd No. 232, (S)-2-(2-(morpholinomethyl)-4-(4-(trifluoromethyl)-phenoxy)phenyl)-6-((2-oxopyrrolidin-3-yl)oxy)-pyrimidine-4-carboxamide] | 10 to 20 µM | – | – | – |
